Experimental data taken from the supplement of paper PMC10307832.

How the values were obtained:
Experiment in all cases: relative viability (nuclei count vs DMSO), 5 days (fraction); higher = more cells survive
IMD-0354 + OSI-027 = compound: O=C(Nc1cc(C(F)(F)F)cc(C(F)(F)F)c1)c1cc(Cl)ccc1O [IMD-0354] + COc1cccc2cc(-c3nc([C@H]4CC[C@H](C(=O)O)CC4)n4ncnc(N)c34)[nH]c12 [OSI-027] (partner 0.5 µM)
How it was run: (§1)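 Relative viability was taken as the ratio of nuclei in treated wells to nuclei in vehicle wells. Lung cancer cell lines in 1536-well plates received compounds by pin tool one day after seeding, either one drug alone or a fixed anchor-drug dose plus five library-drug doses (not always all listed) in √10 steps. Nuclei were counted on 4× images after 5 days of treatment, and values are medians of duplicate plates.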

IMD-0354 + Alpelisib = compound: O=C(Nc1cc(C(F)(F)F)cc(C(F)(F)F)c1)c1cc(Cl)ccc1O [IMD-0354] + Cc1nc(NC(=O)N2CCC[C@H]2C(N)=O)sc1-c1ccnc(C(C)(C)C(F)(F)F)c1 [Alpelisib] (partner 2 µM)
How it was run: as §1

IMD-0354 + Vorinostat = compound: O=C(Nc1cc(C(F)(F)F)cc(C(F)(F)F)c1)c1cc(Cl)ccc1O [IMD-0354] + O=C(CCCCCCC(=O)Nc1ccccc1)NO [Vorinostat] (partner 1 µM)
How it was run: as §1

IMD-0354 + Linsitinib = compound: O=C(Nc1cc(C(F)(F)F)cc(C(F)(F)F)c1)c1cc(Cl)ccc1O [IMD-0354] + C[C@]1(O)C[C@@H](c2nc(-c3ccc4ccc(-c5ccccc5)nc4c3)c3c(N)nccn32)C1 [Linsitinib] (partner 1 µM)
How it was run: as §1

| Cell Line | relative viability (IMD-0354 + OSI-027; first compound 0.04 µM) | relative viability (IMD-0354 + OSI-027; first compound 0.1265 µM) | relative viability (IMD-0354 + OSI-027; first compound 0.4 µM) | relative viability (IMD-0354 + OSI-027; first compound 1.265 µM) | relative viability (IMD-0354 + OSI-027; first compound 4 µM) | relative viability (IMD-0354 + Alpelisib; first compound 0.04 µM) | relative viability (IMD-0354 + Alpelisib; first compound 0.1265 µM) | relative viability (IMD-0354 + Alpelisib; first compound 0.4 µM) | relative viability (IMD-0354 + Alpelisib; first compound 1.265 µM) | relative viability (IMD-0354 + Alpelisib; first compound 4 µM) | relative viability (IMD-0354 + Vorinostat; first compound 0.04 µM) | relative viability (IMD-0354 + Vorinostat; first compound 0.1265 µM) | relative viability (IMD-0354 + Vorinostat; first compound 0.4 µM) | relative viability (IMD-0354 + Vorinostat; first compound 1.265 µM) | relative viability (IMD-0354 + Vorinostat; first compound 4 µM) | relative viability (IMD-0354 + Linsitinib; first compound 0.04 µM) | relative viability (IMD-0354 + Linsitinib; first compound 0.1265 µM) | relative viability (IMD-0354 + Linsitinib; first compound 0.4 µM) | relative viability (IMD-0354 + Linsitinib; first compound 1.265 µM) | relative viability (IMD-0354 + Linsitinib; first compound 4 µM) |
| --- | --- | --- | --- | --- | --- | --- | --- | --- | --- | --- | --- | --- | --- | --- | --- | --- | --- | --- | --- | --- |
| NCI-H322M | 0.612 | 0.493 | 0.427 | 0.285 | 0.33 | 0.717 | 0.607 | 0.695 | 0.834 | 0.475 | 0.901 | 0.891 | 0.48 | 0.42 | 0.537 | 0.973 | 0.909 | 0.793 | 1.09 | 0.319 |
| NCI-H838 | 0.422 | 0.334 | 0.294 | 0.209 | 0.211 | 1.19 | 1.06 | 0.445 | 0.615 | 0.331 | 0.719 | 0.766 | 0.363 | 0.413 | 0.324 | 1.18 | 0.969 | 0.505 | 0.47 | 0.324 |
| HARA | 0.576 | 0.542 | 0.179 | 0.148 | 0.0924 | 0.942 | 0.724 | 0.503 | 0.141 | 0.169 | 0.562 | 0.507 | 0.355 | 0.265 | 0.072 | 1.08 | 0.867 | 0.577 | 0.119 | 0.136 |
| NCI-H2087 | 0.496 | 0.646 | 0.189 | 0.119 | 0.112 | 1.04 | 0.938 | 0.329 | 0.136 | 0.131 | 0.806 | 0.837 | 0.2 | 0.0721 | 0.0731 | 0.887 | 0.659 | 0.308 | 0.127 | 0.203 |
